# How the values were obtained:
# hepatoma cells Hep3B = assay: Promotion of erythropoietin (EPO) expression in hepatoma cells Hep3B in vitro (ELISA); type: cell-based, Human; settings: Hep3B supernatant, 24 hours, test doses 100 μmol/L and 10 μmol/L (dose of the tabulated value not given)
# Source text: Biological Example 1: Development and Screening of In Vitro Detection Methods: Promotion of Erythropoietin Expression in Hepatoma Cells Hep3B In Vitro by HIF-PHD2 Inhibitor Compounds
# The complete medium for culture of Experimental hepatoma cells Hep3B (China Center for Type Culture Collection, CCTCC) was MEM (Cat# GNM 41500, GIBCO, provided by Hangzhou Genom Biopharmaceutical Technology Co., Ltd) supplemented with 10% serum FBS (Cat#10099-141, GIBCO) and 1% P/S (Cat#GNM15140, provided by Hangzhou Genom Biopharmaceutical Technology Co., Ltd). Cells were cultured in a 37° C., 5% CO2 incubator. Experimental reagents included dimethyl sulfoxide (for molecular biology, >=99.9%, Catalog # D8418) purchased from Sigma. The ELISA kit was purchased from Quantikine IVD ELISA, Human Erythropoietin (R&D, DEP00). The test control AKB-6548 was prepared by the inventors or obtained by commercial purchase. The test substance was stored at −20° C. in the dark.
# The test substance and the positive control substance were fully dissolved in sterile water or dimethylsulfoxide under dark conditions and prepared into a stock solution at a concentration of 10^−1 mol/L or 10^−2 mol/L. Each of the stock solutions was stored at −20° C. MEM medium containing 0.5% FBS was used as a diluent to dilute the stock solution of the test substance, to prepare a diluted test substance at a concentration of 100 μmol/L and 10 μmol/L. To a 96-well culture plate was added 200 μl/well (1.5 or 2.0×10^4 cells/well) of hepatoma cells Hep3B complete medium suspension and incubated overnight at 37° C. in a 5% CO2 incubator. The solution in the 96-well culture plate was removed and the cells were washed once with the MEM medium containing 0.5% FBS. 200 μl/well of the test substance was added in the dark, at a dose of 100 μmol/L and 10 μmol/L, and each dose set 2 wells, a test well and a spare well. A cell control well was prepared by replacing the test solution with the diluent (without test substance and solvent). A solvent control well was prepared by replacing the test solution with the diluent containing the corresponding concentration of solvent (dimethylsulfoxide) (without test substance). They were cultured in a 5% CO2 incubator at 37° C. for 24 hours. The supernatant was absorbed as a sample and cryopreserved at −20° C. for use. 100 μl/well of stop solution was added. OD value was detected by microplate reader A450 nm-A600 nm. The expression level of EPO (mIU/mL) promoted by the test substance was obtained according to the standard curve.
# [1] = target: HIF Prolyl hydroxylases 2 (PHD2) (Homo sapiens, UniProt Q9GZT9); assay: PHD2 inhibition, fluorescence polarization (FP) detection of HIF-1α / VBC complex interaction; type: biochemical; settings: PHD2 0.5 μg/μl, FAM-HIF (556-575) 1 μM, 30 minutes room temperature
# Experimental: The interaction between hypoxia-inducible factor HIF-1α and VBC complex (von Hippel-Lindau protein-Elongin B-Elongin C, VBC) was detected by Fluorescence polarization (FP) method, to measure the enzyme inhibitory activity of the HIF Prolyl hydroxylases 2 (PHD2) inhibitor compounds.
# Subsequently, the desired concentration of the test compound or the positive compound was added (the compound was replaced by the buffer in the negative control and the positive control). Finally, PHD2 was added at a final concentration of 0.5 μg/μl (PHD2 was replaced by the buffer in the negative control). They were mixed well and allowed to stand at room temperature for 30 minutes in the dark followed by 95° C. water bath for 1 minute, and then the reaction was terminated. After the temperature drops to room temperature, the sample was prepared well for use. EBC buffer (50 mM Tris.HCl, 120 mM NaCl, 0.5% NP-40) was added to the corresponding wells of a black 96-well test plate. A GST-VBC complex was added to the corresponding test wells at a final concentration of 300 nM (using the wells containing only EBC buffer as blank wells). Subsequently, the corresponding PHD2 prolyl hydroxylation reaction sample was added in the dark as a substrate with a final concentration of 100 nM. After mixing well, the lateral and longitudinal fluorescence intensity values were measured using a full-wavelength multifunctional microplate reader (TECAN infinite M1000) at an excitation wavelength of […] and an emission wavelength of 518 nm.
# The fluorescence polarization (mP) was calculated: mP=1000×(lateral value−G factor×longitudinal value)/(lateral value+G factor×longitudinal value) wherein, lateral value=lateral fluorescence intensity value of test well−lateral fluorescence intensity value of blank well, longitudinal value=longitudinal fluorescence intensity value of test well−longitudinal fluorescence intensity value of blank well, […]
# The IC50 was calculated using the non-linear regression data analysis method of Graphpad Prism 4.0 software ([…]).
# Chain of HIF Prolyl hydroxylases 2 (PHD2) (Q9GZT9 whole entry, species assumed): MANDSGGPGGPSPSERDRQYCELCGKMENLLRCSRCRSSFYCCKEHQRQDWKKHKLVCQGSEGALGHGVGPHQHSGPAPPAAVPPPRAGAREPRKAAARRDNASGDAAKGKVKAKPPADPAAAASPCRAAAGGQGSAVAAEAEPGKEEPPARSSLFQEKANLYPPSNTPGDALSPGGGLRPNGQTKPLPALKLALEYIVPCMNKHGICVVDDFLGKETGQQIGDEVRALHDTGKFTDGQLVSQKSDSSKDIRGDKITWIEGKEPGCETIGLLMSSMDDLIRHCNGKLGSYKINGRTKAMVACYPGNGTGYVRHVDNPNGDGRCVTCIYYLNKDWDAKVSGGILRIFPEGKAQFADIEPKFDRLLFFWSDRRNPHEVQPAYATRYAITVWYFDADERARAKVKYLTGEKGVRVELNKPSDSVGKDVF
IC50 [1] [µM],Compound,EPO level of the test substance (hepatoma cells Hep3B) [mIU/mL]
1.7,"Cc1nc(C(=O)NCC(=O)O)c(O)c2ccc(-c3cccnc3)nc12 [Compound 5, 2-{5-hydroxy-8-methyl-[2-(3-pyridyl)]-[1,7]-naphthyridine-6-formamido} acetic acid]",1.89
63,"COc1ccc(-c2ccc3c(O)c(C(=O)NCC(=O)O)nc(C)c3n2)cc1 [Compound 10, 2-{5-hydroxy-8-methyl-[2-(4-methoxy)-phenyl]-[1,7]-naphthyridine-6-formamido} acetic acid]",0.64
6.9,"COc1cccc(-c2ccc3c(O)c(C(=O)NCC(=O)O)nc(C)c3n2)c1 [Compound 4, 2-{5-hydroxy-[2-(3-methoxy)-phenyl]-8-methyl-[1,7]-napthyridine-6-formamido} acetic acid]",1.512
9.3,"Cc1nc(C(=O)NCC(=O)O)c(O)c2ccc(-c3ccc(C#N)cc3)nc12 [Compound 22, 2-{5-hydroxy-[2-(4-cyano)-phenyl]-8-methyl-[1,7]-naphthyridine-6-formamido} acetic acid]",0.53
48,CC(C)(C)c1ccc(-c2ccc3c(O)c(C(=O)NCC(=O)O)ncc3n2)cc1 [Compound 16],7.046
0.82,"O=C(O)CNC(=O)c1ncc2nc(-c3cccc(F)c3)ccc2c1O [Compound 20, 2-{5-hydroxy-[2-(3-fluoro)-phenyl]-[1,7]-naphthyridine-6-formamido} acetic acid]",10.685
11,"COc1ccc(-c2ccc3c(O)c(C(=O)NCC(=O)O)ncc3n2)cc1 [Compound 2, 2-{5-hydroxy-[2-(4-methoxy)-phenyl]-[1,7]-naphthyridine-6-formamido} acetic acid]",0.64
7.5,"O=C(O)CNC(=O)c1ncc2nc(-c3ccc4ccccc4c3)ccc2c1O [Compound 19, [(5-hydroxy-2-(naphthalen-2-yl)-[1,7]naphthyridine-6-carbonyl)-amino]-acetic acid]",9.786
4.1,"Cc1nc(C(=O)NCC(=O)O)c(O)c2ccc(-c3cccc(Br)c3)nc12 [Compound 12, 2-{5-hydroxy-[2-(3-bromo)-phenyl]-8-methyl-[1,7]-naphthyridine-6-formamido} acetic acid]",4.536
14,"Cc1nc(C(=O)NCC(=O)O)c(O)c2ccc(-c3cccc([N+](=O)[O-])c3)nc12 [Compound 21, 2-{5-hydroxy-[2-(3-nitro)-phenyl]-8-methyl-[1,7]-naphthyridine-6-formamido} acetic acid]",0.325
43,O=C(O)CNC(=O)c1ncc2nc(-c3ccc(Cl)cc3)ccc2c1O [Compound 8],0.68
0.41,"O=C(O)CNC(=O)c1ncc2nc(-c3cccc(Br)c3)ccc2c1O [Compound 13, 2-{5-hydroxy-2-(3-bromophenyl)-[1,7]-naphthyridine-6-formamido} acetic acid]",0.832
85,"Cc1nc(C(=O)NCC(=O)O)c(O)c2ccc(-c3ccc(Cl)cc3)nc12 [Compound 3, 2-{5-hydroxy-[2-(4-chloro)-phenyl]-8-methyl-[1,7]-naphthyridine-6-formamido} acetic acid]",0.52
20,"O=C(O)CNC(=O)c1ncc2nc(-c3ccc(Br)cc3)ccc2c1O [Compound 17, 2-{5-hydroxy-[2-(4-bromo)-phenyl)-[1,7]-naphthyridine-6-formamido} acetic acid]",7.757
39,"Cc1nc(C(=O)NCC(=O)O)c(O)c2ccc(-c3ccc(C(C)(C)C)cc3)nc12 [Compound 11, 2-{5-hydroxy-8-methyl-[2-(4-tert-butyl)-phenyl]-[1,7]-naphthyridine-6-formamido} acetic acid]",4.158
